Source: patent US7655808B2, “Leptomycin compounds” (priority 2004, dated 2010)
Where two headings read alike, the source gives them in different places.

Experiments:
[1] = test system: NCI/ADR; experiment: Inhibition of proliferation / cytotoxicity, NCI/ADR; format: cell-based; settings: NCI/ADR multi-drug resistant breast cancer cell line, read-out: Tumor Cell Line (IC50, nM) NCI/ADR
Protocol: (§1) The biological activity of compounds of this invention was evaluated by measuring their inhibitory effect on the proliferation of various tumor cell lines. MCF-7, A549, and SKOV-3 are human breast, lung, and ovary cancer cell lines, respectively. NCI/ADR is a multi-drug resistant breast cancer cell line. CCRF-CEM and CCRF-CEM/PTX are human leukemia cell lines, the latter being a paclitaxel-resistant subline. LNCaP is a prostate cancer cell line.

[2] = test system: CCRF-CEM; experiment: Inhibition of proliferation / cytotoxicity, CCRF-CEM; format: cell-based; settings: CCRF-CEM human leukemia cell line; read-out: Tumor Cell Line (IC50, nM) CCRF-CEM
Protocol: as §1

[3] = test system: A549; experiment: Inhibition of proliferation / cytotoxicity, A549; format: cell-based; settings: A549 human lung cancer cell line; read-out: Tumor Cell Line (IC50, nM) A549
Protocol: as §1

[4] = test system: CCRF-CEM/PTX; experiment: Inhibition of proliferation / cytotoxicity, CCRF-CEM/PTX; format: cell-based; settings: CCRF-CEM/PTX paclitaxel-resistant human leukemia subline; read-out: Tumor Cell Line (IC50, nM) CCRF-CEM/PTX
Protocol: as §1

[5] = test system: MCF-7; experiment: Inhibition of proliferation / cytotoxicity, MCF-7; format: cell-based; settings: MCF-7 human breast cancer cell line, read-out: Tumor Cell Line (IC50, nM) MCF-7
Protocol: as §1

[6] = test system: SKOV-3; experiment: Inhibition of proliferation / cytotoxicity, SKOV-3; format: cell-based; settings: SKOV-3 human ovary cancer cell line, read-out: Tumor Cell Line (IC50, nM) SKOV-3
Protocol: as §1

[7] = test system: LNCaP; experiment: Inhibition of proliferation / cytotoxicity, LNCaP; format: cell-based; settings: LNCaP prostate cancer cell line, read-out: Tumor Cell Line (IC50, nM) LNCaP
Protocol: as §1

[8] = Mouse maximum tolerated dose, single dose intravenous; format: in vivo; settings: mice, single dose intravenous administration
Protocol: The maximum tolerated dose (MTD) in mice, upon single dose intravenous administration was determined for a representative selection of compounds. The data are summarized in Table 4, with comparative data for LMB included.

[9] = test system: MB 49 cells; experiment: Cytotoxicity against MB 49 murine bladder cancer cells; format: cell-based
From the text: Table 5 presents data on the cytotoxicity of LMB and selected compounds of this invention against MB 49 cells, a line of murine bladder cancer cells.

[10] = test system: K562 cells; experiment: Cytotoxicity against Bcr-Abl positive K562 cells; format: cell-based; settings: K562, Bcr-Abl positive CML cell line
From the text: Data was also obtained for the cytotoxicity of several compounds of this invention against K562, a Bcr-Abl positive CML cell line, as shown in Table 3 with comparative data for LMB included.

[11] = Kudo et al., Exp. Cell Res. 1998; cited from earlier work
[12] = test system: mammalian cells; settings: Hamamoto et al., J. Antibiotics 1983; cited from earlier work
[13] = test system: T24; experiment: Cytotoxicity against human bladder cancer cells T24; format: cell-based; settings: T-24
Protocol: (§2) Additionally, the cytotoxicity of LMB was determined against two lines of human bladder cancer cells (UMUC-3 and T24).

[14] = phase 1 trial halted in 1994; cited from earlier work
[15] = test system: UMUC-3; experiment: Cytotoxicity against human bladder cancer cells UMUC-3; format: cell-based; settings: UMUC3; UMUC-3 human bladder cancer cells
Protocol: as §2

Structure (SMILES)	IC50 [1] [nM]	IC50 [2] [nM]	IC50 [3] [nM]	IC50 [4] [nM]	IC50 [5] [nM]	IC50 [6] [nM]	IC50 [7] [nM]	other results
CCC(C=CC1OC(=O)C=CC1C)=CC(C)CC=CC(C)=CC(C)C(=O)C(C)C(O)C(C)CC(C)=CC(=O)NCCCCNC(=O)OC(C)(C)C (stereo not drawn) [Compound 14]	33	1.7	1.6	2.4	0.3	2.5	–	–
CCC(C=CC1OC(=O)C=CC1C)=CC(C)CC=CC(C)=CC(C)C(=O)C(C)C(O)C(C)CC(C)=CC(=O)NCCCCCNC(=O)COc1ccc(C2=NC(=Cc3ccc(-c4cccs4)n3B(F)F)C=C2)cc1 (stereo not drawn) [Compound 20]	1000	–	250	–	210	570	87.4	–
CCC(C=CC1OC(=O)C=CC1C)=CC(C)CC=CC(C)=CC(C)C(=O)C(C)C(O)C(C)CC(C)=CC(=O)NCCCN1CCOCC1 (stereo not drawn) [Compound 8]	39	0.98	0.84	2.1	0.3	2.5	0.5	Mouse MTD [8]: 20 mg/kg; IC50 [9]: 6.8 nM; IC50 [10]: 1 nM
CCC(C=CC1OC(=O)C=CC1C)=CC(C)CC=CC(C)=CC(C)C(=O)C(C)C(O)C(C)CC(C)=CC(=O)NCCO (stereo not drawn) [Compound 2]	27	2.4	2.2	2.8	0.78	2.6	–	–
CCC(C=CC1OC(=O)C=CC1C)=CC(C)CC=CC(C)=CC(C)C(=O)C(C)C(O)C(C)CC(C)=CC(=O)NCCN (stereo not drawn) [Compound 15]	630	17	15	110	4.6	41	4.2	–
CCC(C=CC1OC(=O)C=CC1C)=CC(C)CC=CC(C)=CC(C)C(=O)C(C)C(O)C(C)CC(C)=CC(=O)NCC(=O)OC (stereo not drawn) [Compound 10]	4.6	0.63	1.4	0.5	0.3	2.7	0.8	–
CCC(C=CC1OC(=O)C=CC1C)=CC(C)CC=CC(C)=CC(C)C(=O)C(C)C(O)C(C)CC(C)=CC(=O)NCCNC(C)C (stereo not drawn) [Compound 17]	740	–	4.7	–	3.5	44	–	–
CCC(C=CC1OC(=O)C=CC1C)=CC(C)CC=CC(C)=CC(C)C(=O)C(C)C(O)C(C)CC(C)=CC(=O)Nc1ccc2cn[nH]c2c1 (stereo not drawn) [Compound 5]	34	3.1	3.3	9	2	5.9	–	–
CCC(C=CC1OC(=O)C=CC1C)=CC(C)CC=CC(C)=CC(C)C(=O)C(C)C(O)C(C)CC(C)=CC(=O)NCc1ccc(-c2ccccc2)cc1 (stereo not drawn) [Compound 3]	150	3.5	13	17	3.7	13	–	–
CCC(=C/[C@H](C)C/C=C/C(C)=C/[C@@H](C)C(=O)[C@@H](C)[C@H](O)[C@@H](C)C/C(C)=C/C(=O)NCCCCCCNC(=O)CCCC[C@H]1SC[C@@H]2NC(=O)N[C@@H]21)/C=C/[C@@H]1OC(=O)C=C[C@@H]1C [biotinylated LMB]	–	–	–	–	–	–	–	activity of LMB analog [11]: active
CCC(C=CC1OC(=O)C=CC1C)=CC(C)CC=CC(C)=CC(C)C(=O)C(C)C(O)C(C)CC(C)=CC(=O)NCCOc1ccccc1 (stereo not drawn) [Compound 9]	37	1.9	2.8	2.5	0.64	4.3	–	–
CCC(C=CC1OC(=O)C=CC1C)=CC(C)CC=CC(C)=CC(C)C(=O)C(C)C(O)C(C)CC(C)=CC(=O)NCc1c(C)c(=O)n2c(=O)c(C)c(C)n12 (stereo not drawn) [Compound 18]	380	–	4.3	–	3.4	15	–	–
CCC(C=CC1OC(=O)C=CC1C)=CC(C)CC=CC(C)=CC(C)C(=O)C(C)C(O)C(C)CC(C)=CC(=O)NCCNC (stereo not drawn) [Compound 16]	460	1.8	3.5	29	3.2	9.7	27.2	–
CCC(C=CC1OC(=O)C=CC1C)=CC(C)CC=CC(C)=CC(C)C(=O)C(C)C(O)C(C)CC(C)=CC(=O)NCCNC(=O)CCC1=NC(=Cc2c(C)cc(C)n2B(F)F)C=C1 (stereo not drawn) [Compound 19]	300	–	4.6	–	3.4	20	1.6	–
CCC(C=CC1OC(=O)C=CC1C)=CC(C)CC=CC(C)=CC(C)C(=O)C(C)C(O)C(C)CC(C)=CC(=O)NCCN(C)C (stereo not drawn) [Compound 7]	110	1.4	2.2	3.1	0.61	2.8	0.7	Mouse MTD [8]: 15 mg/kg
CCC(=C/[C@H](C)C/C=C/C(C)=C/[C@@H](C)C(=O)[C@@H](C)[C@H](O)[C@@H](C)C/C(C)=C/C(=O)O)/C=C/[C@@H]1OC(=O)C=C[C@@H]1C [LMB, Leptomycin B, reference compound]	–	0.65	0.3	0.41	–	–	–	cytotoxicity towards mammalian cells [12]: remarkable cytotoxicity; Mouse MTD [8]: 2.5 mg/kg; EC50 [13]: 1.2 nM; IC50 ([9]; Mus musculus, MB49): 1.8 nM; IC50 ([7]; Homo sapiens): 0.3 nM; IC50 ([1]; Homo sapiens, NCI/ADR-RES): 1 nM; IC50 ([10]; Homo sapiens): 0.6 nM; toxicity in phase 1 trial [14]: extreme toxicity; IC50 ([5]; MCF7): 0.29 nM; IC50 ([6]; SK-OV-3): 1.5 nM; EC50 [15]: 0.33 nM
CCC(=C/[C@H](C)C/C=C/C(C)=C/[C@@H](C)C(=O)[C@@H](C)[C@H](O)[C@@H](C)C/C(C)=C/C(=O)OC)/C=C/[C@@H]1OC(=O)CC(C[N+](=O)[O-])[C@@H]1C (stereo partly drawn) [nitromethyl valerolactone LMB analog]	–	–	–	–	–	–	–	activity of LMB analog [11]: inactive
CCC(C=CC1OC(=O)C=CC1C)=CC(C)CC=CC(C)=CC(C)C(=O)C(C)C(O)C(C)CC(C)=CC(=O)NC (stereo not drawn) [Compound 1]	2.1	0.69	0.36	0.46	0.27	1.7	0.8	Mouse MTD [8]: 5 mg/kg
CCC(C=CC1OC(=O)C=CC1C)=CC(C)CC=CC(C)=CC(C)C(=O)C(C)C(O)C(C)CC(C)=CC(=O)NCCNC(=O)OC(C)(C)C (stereo not drawn) [Compound 6]	34	1.1	1.3	2.3	0.32	1.2	–	–
CCC(C=CC1OC(=O)C=CC1C)=CC(C)CC=CC(C)=CC(C)C(=O)C(C)C(O)C(C)CC(C)=CC(=O)NCC(=O)O (stereo not drawn) [Compound 21]	260	–	37	–	31	57	28.6	–
CCC(C=CC1OC(=O)C=CC1C)=CC(C)CC=CC(C)=CC(C)C(=O)C(C)C(O)C(C)CC(C)=CC(=O)NCCc1cccnc1 (stereo not drawn) [Compound 4]	19	1	0.84	1.4	0.32	2.8	0.5	Mouse MTD [8]: 40 mg/kg; IC50 [9]: 5.9 nM; IC50 [10]: 1.7 nM
CCC(C=CC1OC(=O)C=CC1C)=CC(C)CC=CC(C)=CC(C)C(=O)C(C)C(O)C(C)CC(C)=CC(=O)NCCC1OCCO1 (stereo not drawn) [Compound 11]	5.8	0.43	0.67	0.47	0.3	1.5	–	–
